Assay results as given in patent US10428347B2, “Herbicide-detoxifying enzymes and uses thereof” (priority 2017, dated 2019).
“And” between values parts separate entries of the source, which are not always exact repeats. Equal values may be shown once. Read-outs that look alike come from different tables or passages of the source.

What was measured:
[1] = Spray tank cleaning procedure using salicylate monooxygenase to remove dicamba; details: spray application using dicamba
soybean = test: Spray tank dicamba treated with ChD crude cell lysate, applied to field soybean; type: in vivo; details: field soybean V2-V3, 2 ml of tank sample (about 200 mg/L dicamba, with or without 5% v/v crude cell lysate for 10 minutes), one week after application (FIG. 15)
Procedure: Chlorothalonil dehalogenase (ChD, SEQ ID NO: 168) was prepared as a crude cell lysate as described above in Example 5. […] A 5% v/v solution of the crude cell lysate containing the ChD enzyme was added and the tank was run for an additional 10 minutes. […] Each of the samples was frozen immediately after collection from the tank. Samples were transported to the field on ice to ensure that enzyme activity was halted.

soybean plants [2] = test: V1 soybean bioassay of dicamba reacted with ChD with or without MnSO4
Procedure: Soybean plants (variety Morsoy Xtra) were planted in Timberline soil (2 seeds per pot) and grown for 12 days under controlled environmental growth conditions: 300 μmol m^−2 s^−1 (light photons) for a 13/11 light/day cycle and a 21° C. day/15° C. night temperature range until the V1 stage of development.
The dilution to achieve 100 ppm or 100 mg/L was made in 25 mM HEPES pH 7 in a 10 mL total volume. […] The ChD enzyme production was centrifuged to remove any cellular debris and then divided into aliquots of 100 μL containing the Bacillus subtillis (A64) filtrate with the ChD expressed enzyme. […] The reactions were incubated at 37° C. with 400 ppm stirring for two hours. Aliquots of the reactions were collected and stored at −80° C.

soybean plants [3] = test: Trifoliate damage scoring of soybean treated with SM1-dicamba reaction products; type: in vivo; design: key: 0: No visible damage; 1: youngest trifoliate has moderate yellowing or curling; 2: youngest trifoliate has moderate yellowing or curling; 3: youngest trifoliate has severe yellowing or curling; 4: youngest trifoliate is completely dead or shriveled; 5: plant is completely necrotic (dead); details: V1 soybean (Morsoy Xtra), 100 μL reaction product diluted 1:24 with 0.01% SILWET L-77 on trifoliate leaves, 6 plants; Time (hours) 2; scale 0-5
Excerpt: These SM1-dicamba degradation products were applied to soybean seedlings (variety, Morsoy Xtra). […] The plants were scored based on trifoliate damage using the scale as described in Table 27.

[4] = oxidation of NADH
Excerpt: Spectra were read from 200-700 nm with a BioTek SYNERGY HTX plate reader (BioTek Instrument Inc.).
NADH disappears when the molecule is oxidized to NAD^+.

[5] = HPLC; for Dicamba (ppm): samples diluted to expected 35 ppm
Procedure: A Bacillus subtilis (A64) control reaction, which was supernatant with no SM1 enzyme was performed in parallel. The reactions were incubated at 37° C. with 400 rpm stirring for two hours. Aliquots of the reactions were collected at time 0 (T0), 1 hour, and 2 hours, and frozen at −80° C.
HPLC column (Kinetex® 5 μm C18 100 Å, LC Column 50×4.6 mm) was equilibrated for 15 minutes with 35% acetonitrile and 65% 10 mM ammonium acetate with 0.1% formic acid in water. A volume of 10 μL of each sample was injected into Waters 2695 Separations Module with a 2996 Photodiode Array Detector. Samples were run isocratically (35% acetonitrile and 65% 10 mM ammonium acetate with 0.1% formic acid in water) for 2 minutes. […] An average of 3 measurements was run for each treatment sample.
The HPLC results as reported in FIG. 2 are the average of 3 sample measurements.

[6] = Absorbance spectra assay of dicamba degradation by ChD or CAC
soybean seedlings = test: Spray of enzyme-treated dicamba solution onto soybean seedlings; type: in vivo; details: 2.5-week-old soybean seedlings sprayed with 208 μM dicamba solution with or without immobilized enzyme, one week
Procedure: Salicylate monooxygenase (SM, SEQ ID NO: 21) and hydroxyphenylacetate monooxygenase (HPAM, SEQ ID NO: 30) were immobilized on particles. […] Aliquots (1 ml) were taken from incubated samples at 0 minutes, 10 minutes, 30 minutes, 1 hour, 5 hours, 24 hours and 30 hours after the introduction of SM and immediately frozen to stop the detoxification reaction. NADPH consumption was quantified by measuring loss of absorbance at 340 nm using a spectrophotometer. Results for SM are shown in panel A of FIG. 10 and results for HPAM are shown in panel A of FIG. 11. Consumption of NADPH is proportional to the degradation of dicamba.
Immediately after taking the absorbance measurements, the 1 ml aliquots were mixed with a nonionic organosilicone surfactant copolymer (0.1% SILWET L77) and 200 μL of the mixture was sprayed onto 2.5-week-old soybean seedlings (six plants per treatment group, on average). The use of the surfactant ensured even distribution of the solutions on the plants. Control plants were sprayed with water+surfactant alone or dicamba+surfactant alone. After one week, the degree of herbicide damage or the degree of protection from dicamba-induced injury (in plants treated with SM) was assessed visually.

sensitive plants = details: in vivo; cited from earlier work
[7] = Sequestration of dicamba by ChD (3 kDa filter, absorbance at 230 nm); type: binding; details: dicamba 100 mg/L, 10, 20, 30 and 40 uL enzyme solution, 5 minutes at 37° C. (FIG. 18)
Procedure: To four of the tubes, enzyme solution was added to four of the tubes at 10, 20, 30, and 40 uL rates. The two tubes without the enzyme solution served as controls for the experiment. When the enzyme was added, five of the tubes (one of the 0 uL enzyme tubes, and all of the tubes with the enzyme added) were placed in the Eppendorf Thermomixer R for 5 minutes, at 37° C., and 800 rpm. After the incubation period, the tubes were removed from the heat and placed on ice to stop the reaction. […] These new tubes were spun at 1400 rpm for five minutes. When the spin was completed, 100 uL of the top and bottom fractions were added into a 96-well UV-Star plate. Spectral readings were then taken from 200 nm to 340 nm. The reads for the buffer alone controls were subtracted from the experimental values. The relative difference between the control without enzyme added and the experimental samples with enzyme added was calculated at 230 nm.

[8] = Absorbance spectra assay of 2,4-D degradation by ChD or CAC; type: biochemical; details: one hour at 37° C.
[9] = Absorbance spectra assay of MCPA-4 amine degradation by ChD or CAC; type: biochemical; details: one hour at 37° C.
Procedure: (§1) Small scale (1 mL) assays were performed to evaluate the ability of ChD and CAC to degrade MCPA-4 amine or mecoprop.
(§2) MCPA-4 amine and mecoprop have absorbance maxima (Amax) at approximately 230 and 280 nm. […] MCPA-4 amine or mecoprop end product generation is directly proportional to the degradation MCPA-4 amine or mecoprop, respectively.

[10] = Absorbance spectra assay of mecoprop degradation by ChD or CAC; type: biochemical; details: one hour at 37° C.
Procedure: as §1, §2

[11] = dicamba 100 ppm, n=6, scale 0-5
[12] = dicamba (CLASH) 200 mg/L alone (no enzyme), 50 mM HEPES pH 7.0, one hour at 37° C.

COc1c(Cl)ccc(Cl)c1C(=O)O [Dicamba, 3,6-dichloro-2-methoxybenzoic acid]
safe zone concentration in rinsate (no injury or harm to the plant or the environment) [1]: ≤ 15 mg/L
damage to or protection of soybean crop (size and growth vs untreated control) (soybean): significant damage to the crops
Average Epinasty Score (soybean plants [2]; [11]): 3.0
average trifoliate damage score (soybean plants [2]; [11]): 3.5
average trifoliate damage score (soybean plants [2]; dicamba alone at 100 ppm, 150 ppm and 200 ppm): 3.5-3.6
average trifoliate damage score (soybean plants [3]): 4
Absorbance at 340 nM ([4]; Time 1 hour): 0.059
Absorbance at 340 nM ([4]; Time 2 hours): 0.058
Absorbance at 340 nM ([4]; Time T0): 0.056
Percent Dicamba Concentration Relative to T0 control ([5]; Time 0 hours): 100.0%
Dicamba (ppm) ([5]; Time 0 hours, 25 mM HEPES pH 7, 37° C.): 34.9 ppm
Percent Dicamba Concentration Relative to T0 control ([5]; Time 1 hour): 113.6%
Dicamba (ppm) ([5]; Time 1 hour, 25 mM HEPES pH 7, 0.5 mM NADH where stated, 37° C.): 39.7 ppm
Percent Dicamba Concentration Relative to T0 control ([5]; Time 2 hours): 106.0%
Dicamba (ppm) ([5]; Time 2 hours, 25 mM HEPES pH 7, 0.5 mM NADH where stated, 37° C.): 37.0 ppm
Absorbance Maxima at Wavelength (λ) 230 [6, 12]: 1.597 and 1.5967
Absorbance Maxima at Wavelength (λ) 259 [6, 12]: 0.1597
Absorbance Maxima at Wavelength (λ) 280 [6, 12]: 0.2845
herbicide damage or protection from dicamba-induced injury, assessed visually (soybean seedlings): significant curling of the leaves and stunted growth
dicamba spray level at which sensitive plants show herbicide damage with pronounced symptoms (sensitive plants): 0.017 kg/ha

B1: ChD: chlorothalonil dehalogenase from Pseudomonas species strain CTN-3, amino acid SEQ ID NO: 168 (protein, listed as Pseudomonas sp.)
chain: MPPGCSGLCSFVGLTMPLKFSGVLCASLLTITLSVAAHATELILDFNKVQMRSQQLAPGVYAHLPADSAELNAKGGVAGTSGGLIVGTRGAMLIETMLNRRLFDQVQALAKKEALGLPLLYAVNTSYHGDHSYGNMYLKAPTRVIQSTKTRDYVDGHLADDKAFMVKNFGAGRGVEQITARTGDILVPPGGRVSVDLGGKTVEIIDFGFAQTGGDLFVWEPQSKVMWTGNAVVASKPALPWLLDGKLVETLATLQKVYDFLPPDATIVPGHGVPMAREGLRWHLDYLAAVQAGVKDALARKLSLEQTVTELKMPEFRGYVLFDWVHPDLNVPAAYKDLAARP
damage to or protection of soybean crop (size and growth vs untreated control) (soybean): almost complete protection of the plants
dicamba in a bound state (relative absorbance at 230 nm of 3 kDa filter fractions) [7]: dose-dependent effect
Percent (%) increase in 252 λ, (end product formed) compared to 2,4-D control ([8]; 2,4-D 200 mg/L + enzyme at 20X dilution (5 μM)): 196%
Percent (%) increase in 252 λ, (end product formed) compared to 2,4-D control ([8]; 2,4-D 200 mg/L + enzyme at 40X dilution ([…])): 122%
Percent (%) increase in 259 λ (end product formed) compared to dicamba control ([6]; dicamba 200 mg/L + enzyme at 20X dilution (5 μM), one hour at 37° C.): 501%
Percent (%) increase in 252 λ (end product formed) compared to MCPA-4-Amine control ([9]; MCPA-4 amine 200 mg/L + enzyme at 20X dilution (5 μM)): 464%
Percent (%) increase in 252 λ (end product formed) compared to MCPA-4-Amine control ([9]; MCPA-4 amine 200 mg/L + enzyme at 40X dilution ([…])): 128.9%
Percent (%) increase in 252 λ (end-product formed) compared to Mecoprop control ([10]; mecoprop 200 mg/L + enzyme at 20X dilution (5 μM)): 164%
Percent (%) increase in 252 λ (end-product formed) compared to Mecoprop control ([10]; mecoprop 200 mg/L + enzyme at 40X dilution ([…])): 129%
